Measured values from patent US7705118B2, “Methods for preparing internally constrained peptides and peptidomimetics” (New York University, priority 2004, dated 2010).

What was measured:
[1] = Circular dichroism of constrained peptide 3 and control peptide 1; assay type: physicochemical; conditions: aqueous buffer and TFE solutions
Experimental: The structure of constrained peptide 3 was studied with circular dichroism (“CD”). CD studies on the constrained peptide 3 and the control peptide 1 in 30 mM phosphate buffer pH 7.0 were performed to obtain a quantitative measure of the helical content. […] The relative percent helicity of peptides can theoretically be measured by the mean residue ellipticity at 222 nm (Lyu et al., “Alpha-helix Stabilization by Natural and Unnatural Amino Acids with Alkyl Side Chains,” Proc. Nat'l Acad. Sci. 88:5317-5320 (1991), which is hereby incorporated by reference in its entirety), although these estimates are not typically accurate for short helices.
CD spectra were recorded on an AVIV 202SF CD spectrometer equipped with a temperature controller using 1 mm path length cells. The scan speed was set to 5 nm/min and spectra were averaged over 5 scans. Spectral baselines were obtained under analogous conditions as that for the samples. All spectra are baseline subtracted, converted to a uniform scale of molar ellipticity, and replotted. The helix content of each peptide was determined from the mean residue CD at 222 nm, [θ]222 (deg cm^2 dmol^−1) corrected for the number of amide bonds (Chin et al., Proc. Nat'l Acad. Sci. U.S.A., 99:15416-15421 (2002); Chen et al., Biochemistry, 11:4120-4131 (1972), which are hereby incorporated by reference in their entirety). […]

[2] = tested on: trypsin
Experimental: At different time intervals, 100 μL of the above solution was taken out, quenched with 100 μL of 2% TFA aqueous solution, and then injected into reversed-phase HPLC to analyze the change in the area of the peptide peak compared to the area of internal control (tryptophan).

[3] = Circular dichroism of Bak BH3 peptides in 20% TFE/PBS; assay type: physicochemical; conditions: 20% TFE in PBS, 50 μM, 25° C., Yang's method
Experimental: The α-helical conformation of constrained peptide 10a was determined by circular dichroism spectroscopy. […] The HBS α-helix 10a is roughly 46% helical as measured by Yang's method (Chen et al., Biochemistry, 11:4120-4131 (1972), which is hereby incorporated by reference in its entirety). […]
CD spectra were recorded on AVIV 202SF CD spectrometer equipped with a temperature controller using 1 mm length cells and a scan speed of 5 nm/min at 25° C. […] The helix content of each peptide was determined from the mean residue CD at 222 nm, [θ]222 (deg cm^2 dmol^−1) corrected for the number of amide bonds (Chen et al., Biochemistry 11:4120-4131 (1972), which is hereby incorporated by reference in its entirety). Percent helicity was calculated from ratio [θ]222/[θ]max, where [θ]max=−39500×[1−(2.57/n)]. The [θ]max for HBS α-helices is calculated to be −33155 for n=16 (number of amide bonds in the peptide).

| SMILES | CD spectrum [1] | proteolysis in the presence of trypsin [2] | percent helicity [3] [%] |
| --- | --- | --- | --- |
| COC(=O)[C@@H](NC(=O)[C@@H](NC(=O)[C@@H](NC(=O)[C@@H](NC(=O)[C@@H](NC(=O)[C@@H](NC(=O)[C@@H](NC(=O)[C@H](NCC=O)NC(C)=O)N[C@@H](C=O)CCC(=O)O)N[C@@H](C)C=O)N[C@@H](C)C=O)N[C@@H](C)C=O)N[C@@H](C)C=O)N[C@@H](C=O)CCC(=O)O)N[C@@H](C)C=O [peptide 1] | featureless spectrum | – | – |
| CC[C@H](C)[C@H](NC(=O)[C@H](C)NC(=O)[C@H](CC(C)C)NC(=O)[C@H](CCC(N)=O)NC(=O)[C@H](CCCNC(=N)N)NC(=O)CNC(=O)[C@@H](NC(=O)[C@H](CCC(N)=O)NC(=O)CNC(C)=O)C(C)C)C(=O)N[C@H](C(=O)NCC(=O)N[C@@H](CC(=O)O)C(=O)N[C@@H](CC(=O)O)C(=O)N[C@H](C(=O)N[C@@H](CC(N)=O)C(=O)N[C@@H](CCCNC(=N)N)C(N)=O)[C@@H](C)CC)[C@@H](C)CC [peptide 9a] | – | rapid proteolysis | ~26 |
